Source: patent US6376497B1, “Antifungal azole derivatives having a fluorinated vinyl group and process for preparing same” (Korea Research Institute of Chemical Technology, priority 1999, dated 2002)

What was measured:
Test in all cases: In vitro antifungal activity, microbroth dilution MIC
Format in all cases: cell-based
[1] = test system: Candida parapsitosis A. 7330; conditions: C. parapsitosis A. 7330, RPMI-1640, 35° C., 4 to 48 hours
Method in brief: (§1)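 Broth microdilution adapted from NCCLS M27, in RPMI-1640 with 0.165 M MOPS, pH 7.0. Yeast or mould inoculum at 2×10^3 CFU/ml was mixed 1:1 with DMSO-derived compound solutions (200 to 0.10 μg/ml before mixing) and incubated at 35 °C for 4 to 48 h. MIC was the concentration showing no growth.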

[2] = test system: Candida krusei K. 11655; conditions: C. krusei K. 11655, RPMI-1640, 35° C., 4 to 48 hours
Method in brief: as §1

[3] = test system: Cryptococcus neoformans B. 42419; conditions: Cry. neoformans B. 42419, RPMI-1640, 35° C., 4 to 48 hours
Method in brief: as §1

[4] = test system: Torulopsis glabrata B. 16205; conditions: T. glabrata B. 16205, RPMI-1640, 35° C., 4 to 48 hours
Method in brief: as §1

[5] = test system: Candida albicans A. 10231; conditions: C. albicans A. 10231, RPMI-1640, 35° C., 4 to 48 hours
Method in brief: as §1

[6] = test system: Cryptococcus neoformans IFM. 40092; conditions: Cry. neoformans IFM. 40092, RPMI-1640, 35° C., 4 to 48 hours
Method in brief: as §1

[7] = test system: Cryptococcus neoformans A. 34144; conditions: Cry. neoformans A. 34144, RPMI-1640, 35° C., 4 to 48 hours
Method in brief: as §1

[8] = test system: Aspergillus niger A. 16404; conditions: A. niger A. 16404, RPMI-1640, 35° C., 4 to 48 hours
Method in brief: as §1

[9] = test system: Trichophyton mentagrophytes B. 32663; conditions: T. mentagrophytes B. 32663, RPMI-1640, 35° C., 4 to 48 hours
Method in brief: as §1

[10] = test system: Candida tropicalis A. 13803; conditions: C. tropicalis A. 13803, RPMI-1640, 35° C., 4 to 48 hours
Method in brief: as §1

[11] = test system: Trichophyton mentagrophytes A. 9129; conditions: T. mentagrophytes A. 9129, RPMI-1640, 35° C., 4 to 48 hours
Method in brief: as §1

[12] = test system: Candida albicans IFO. 1385; conditions: C. albicans IFO. 1385, RPMI-1640, 35° C., 4 to 48 hours
Method in brief: as §1

[13] = test system: Candida pseudotropicalis K. 11658; conditions: C. pseudotropicalis K. 11658, RPMI-1640, 35° C., 4 to 48 hours
Method in brief: as §1

[14] = test system: Aspergillus furnigatus B. 19119; conditions: A furnigatus B. 19119, RPMI-1640, 35° C., 4 to 48 hours
Method in brief: as §1

[15] = test system: Candida albicans C1-2; conditions: C. albicans C1-2, RPMI-1640, 35° C., 4 to 48 hours
Method in brief: as §1

## COc1ccc(C(=C(F)OCC2COC(Cn3ccnc3)(c3ccc(F)cc3F)O2)C(F)(F)F)cc1 (mixture of isomers) [Ex. 61]
[1]
  Minimal inhibitory concentration (MIC): >100 µg/mL
[2]
  Minimal inhibitory concentration (MIC): >100 µg/mL
[3]
  Minimal inhibitory concentration (MIC): 1.56 µg/mL
[4]
  Minimal inhibitory concentration (MIC): 6.25 µg/mL
[5]
  Minimal inhibitory concentration (MIC): 12.5 µg/mL
[6]
  Minimal inhibitory concentration (MIC): 0.20 µg/mL
[7]
  Minimal inhibitory concentration (MIC): 1.56 µg/mL
[8]
  Minimal inhibitory concentration (MIC): 100 µg/mL
[9]
  Minimal inhibitory concentration (MIC): 3.13 µg/mL
[10]
  Minimal inhibitory concentration (MIC): 100 µg/mL
[11]
  Minimal inhibitory concentration (MIC): 6.25 µg/mL
[12]
  Minimal inhibitory concentration (MIC): 0.78 µg/mL
[13]
  Minimal inhibitory concentration (MIC): 100 µg/mL
[14]
  Minimal inhibitory concentration (MIC): 12.5 µg/mL
[15]
  Minimal inhibitory concentration (MIC): 12.5 µg/mL

## FC(OCC1COC(Cn2ccnc2)(c2ccc(F)cc2F)O1)=C(c1ccc2c(c1)OCO2)C(F)(F)F (mixture of isomers) [Ex. 62]
[1]
  Minimal inhibitory concentration (MIC): >100 µg/mL
[2]
  Minimal inhibitory concentration (MIC): 100 µg/mL
[3]
  Minimal inhibitory concentration (MIC): 0.78 µg/mL
[4]
  Minimal inhibitory concentration (MIC): 3.13 µg/mL
[5]
  Minimal inhibitory concentration (MIC): 12.5 µg/mL
[6]
  Minimal inhibitory concentration (MIC): 0.20 µg/mL
[7]
  Minimal inhibitory concentration (MIC): 0.78 µg/mL
[8]
  Minimal inhibitory concentration (MIC): >100 µg/mL
[9]
  Minimal inhibitory concentration (MIC): 3.13 µg/mL
[10]
  Minimal inhibitory concentration (MIC): 100 µg/mL
[11]
  Minimal inhibitory concentration (MIC): 12.5 µg/mL
[12]
  Minimal inhibitory concentration (MIC): 0.78 µg/mL
[13]
  Minimal inhibitory concentration (MIC): 50.0 µg/mL
[14]
  Minimal inhibitory concentration (MIC): 25.0 µg/mL
[15]
  Minimal inhibitory concentration (MIC): 12.5 µg/mL

## FC(OCC1COC(Cn2ccnc2)(c2ccc(F)cc2F)O1)=C(c1ccc(Oc2ccccc2)cc1)C(F)(F)F (mixture of isomers) [Ex. 63]
[1]
  Minimal inhibitory concentration (MIC): >100 µg/mL
[2]
  Minimal inhibitory concentration (MIC): >100 µg/mL
[3]
  Minimal inhibitory concentration (MIC): 1.56 µg/mL
[4]
  Minimal inhibitory concentration (MIC): 25.0 µg/mL
[5]
  Minimal inhibitory concentration (MIC): 25.0 µg/mL
[6]
  Minimal inhibitory concentration (MIC): 0.39 µg/mL
[7]
  Minimal inhibitory concentration (MIC): 1.56 µg/mL
[8]
  Minimal inhibitory concentration (MIC): >100 µg/mL
[9]
  Minimal inhibitory concentration (MIC): 6.25 µg/mL
[10]
  Minimal inhibitory concentration (MIC): >100 µg/mL
[11]
  Minimal inhibitory concentration (MIC): 25.0 µg/mL
[12]
  Minimal inhibitory concentration (MIC): 3.13 µg/mL
[13]
  Minimal inhibitory concentration (MIC): >100 µg/mL
[14]
  Minimal inhibitory concentration (MIC): >100 µg/mL
[15]
  Minimal inhibitory concentration (MIC): 50.0 µg/mL

## FC(OCC1COC(Cn2ccnc2)(c2ccc(F)cc2F)O1)=C(c1cccc(Cl)c1)C(F)(F)F (mixture of isomers) [Ex. 64]
[1]
  Minimal inhibitory concentration (MIC): 100 µg/mL
[2]
  Minimal inhibitory concentration (MIC): 50.0 µg/mL
[3]
  Minimal inhibitory concentration (MIC): 1.56 µg/mL
[4]
  Minimal inhibitory concentration (MIC): 6.25 µg/mL
[5]
  Minimal inhibitory concentration (MIC): 12.5 µg/mL
[6]
  Minimal inhibitory concentration (MIC): 0.20 µg/mL
[7]
  Minimal inhibitory concentration (MIC): 1.56 µg/mL
[8]
  Minimal inhibitory concentration (MIC): 100 µg/mL
[9]
  Minimal inhibitory concentration (MIC): 1.56 µg/mL
[10]
  Minimal inhibitory concentration (MIC): 100 µg/mL
[11]
  Minimal inhibitory concentration (MIC): 6.25 µg/mL
[12]
  Minimal inhibitory concentration (MIC): 0.78 µg/mL
[13]
  Minimal inhibitory concentration (MIC): 25.0 µg/mL
[14]
  Minimal inhibitory concentration (MIC): 3.13 µg/mL
[15]
  Minimal inhibitory concentration (MIC): 12.5 µg/mL

## FC(OCC1COC(Cn2ccnc2)(c2ccc(F)cc2F)O1)=C(c1cccc(F)c1)C(F)(F)F (mixture of isomers) [Ex. 65]
[1]
  Minimal inhibitory concentration (MIC): >100 µg/mL
[2]
  Minimal inhibitory concentration (MIC): 100 µg/mL
[3]
  Minimal inhibitory concentration (MIC): 1.56 µg/mL
[4]
  Minimal inhibitory concentration (MIC): 6.25 µg/mL
[5]
  Minimal inhibitory concentration (MIC): 12.5 µg/mL
[6]
  Minimal inhibitory concentration (MIC): ≦0.10 μg/ml
[7]
  Minimal inhibitory concentration (MIC): 1.56 µg/mL
[8]
  Minimal inhibitory concentration (MIC): 12.5 µg/mL
[9]
  Minimal inhibitory concentration (MIC): 1.53 µg/mL
[10]
  Minimal inhibitory concentration (MIC): 50.0 µg/mL
[11]
  Minimal inhibitory concentration (MIC): 3.13 µg/mL
[12]
  Minimal inhibitory concentration (MIC): 0.78 µg/mL
[13]
  Minimal inhibitory concentration (MIC): 25.0 µg/mL
[14]
  Minimal inhibitory concentration (MIC): 3.13 µg/mL
[15]
  Minimal inhibitory concentration (MIC): 12.5 µg/mL

## FC(OCC1COC(Cn2ccnc2)(c2ccc(F)cc2F)O1)=C(c1ccc(F)cc1)C(F)(F)F (mixture of isomers) [Ex. 66]
[1]
  Minimal inhibitory concentration (MIC): >100 µg/mL
[2]
  Minimal inhibitory concentration (MIC): 100 µg/mL
[3]
  Minimal inhibitory concentration (MIC): 0.39 µg/mL
[4]
  Minimal inhibitory concentration (MIC): 6.25 µg/mL
[5]
  Minimal inhibitory concentration (MIC): 12.5 µg/mL
[6]
  Minimal inhibitory concentration (MIC): ≦0.10 μg/ml
[7]
  Minimal inhibitory concentration (MIC): 0.78 µg/mL
[8]
  Minimal inhibitory concentration (MIC): >100 µg/mL
[9]
  Minimal inhibitory concentration (MIC): 3.13 µg/mL
[10]
  Minimal inhibitory concentration (MIC): 100 µg/mL
[11]
  Minimal inhibitory concentration (MIC): 6.25 µg/mL
[12]
  Minimal inhibitory concentration (MIC): 0.39 µg/mL
[13]
  Minimal inhibitory concentration (MIC): 50.0 µg/mL
[14]
  Minimal inhibitory concentration (MIC): 6.25 µg/mL
[15]
  Minimal inhibitory concentration (MIC): 12.5 µg/mL

## FC(OCC1COC(Cn2ccnc2)(c2ccc(F)cc2F)O1)=C(c1cc(Cl)cc(Cl)c1)C(F)(F)F (mixture of isomers) [Ex. 67]
[1]
  Minimal inhibitory concentration (MIC): 100 µg/mL
[2]
  Minimal inhibitory concentration (MIC): 50.0 µg/mL
[3]
  Minimal inhibitory concentration (MIC): 1.56 µg/mL
[4]
  Minimal inhibitory concentration (MIC): 6.25 µg/mL
[5]
  Minimal inhibitory concentration (MIC): 12.5 µg/mL
[6]
  Minimal inhibitory concentration (MIC): 0.20 µg/mL
[7]
  Minimal inhibitory concentration (MIC): 1.56 µg/mL
[8]
  Minimal inhibitory concentration (MIC): 100 µg/mL
[9]
  Minimal inhibitory concentration (MIC): 1.56 µg/mL
[10]
  Minimal inhibitory concentration (MIC): 100 µg/mL
[11]
  Minimal inhibitory concentration (MIC): 6.25 µg/mL
[12]
  Minimal inhibitory concentration (MIC): 0.78 µg/mL
[13]
  Minimal inhibitory concentration (MIC): 25.0 µg/mL
[14]
  Minimal inhibitory concentration (MIC): 3.13 µg/mL
[15]
  Minimal inhibitory concentration (MIC): 12.5 µg/mL
